Common to all, as to assay type: functional
Test [1] deals with Aspergillus niger. The test can be described thus: Antifungal activity against Aspergillus niger ATCC 1015.
Test [2] deals with Candida albicans. Description: Antifungal activity against Candida albicans ATCC 10231.
In test [3] the test system is Pseudomonas aeruginosa. Description: Antibacterial activity against Pseudomonas aeruginosa ATCC 27853 by micro dilution/broth titre method.
The subject of test [4] is Escherichia coli. The test can be described thus: Antibacterial activity against Escherichia coli ATCC 25922 by micro dilution/broth titre method.
Test [5] has as its system Enterococcus faecalis. Description: Antibacterial activity against Enterococcus faecalis ATCC 29212 by micro dilution/broth titre method.
Test [6] concerns Staphylococcus aureus. Description: Antibacterial activity against Staphylococcus aureus ATCC 25923 by micro dilution/broth titre method.

Structures are written as SMILES. In brackets after ≈: the same amount, converted by molar mass.

In general, MIC refers to the lowest concentration found to suppress growth. The low end stands for greater potency, the high end for weaker potency.

As for `CN(C)c1ccc(/C=C\C(=O)c2ccc(NC(=O)CSc3nnc(-c4cccc([N+](=O)[O-])c4)o3)cc2)cc1`, the MIC in test [1] was 125 µg/mL (≈ 236 µM); in test [2], 62.5 µg/mL (≈ 118 µM); in test [3] it was 62.5 µg/mL (≈ 118 µM); in test [4] it was 31.2 µg/mL (≈ 59 µM); in test [5] it was 125 µg/mL (≈ 236 µM); in test [6], 31.2 µg/mL (≈ 59 µM).
On to `O=C(CSc1nnc(-c2cccc([N+](=O)[O-])c2)o1)Nc1ccc(C(=O)/C=C\c2ccccc2O)cc1`, for which the MIC in test [1] came to 125 µg/mL (≈ 249 µM); in test [2] it was 125 µg/mL (≈ 249 µM); in test [3], 62.5 µg/mL (≈ 124 µM); in test [4] it was 62.5 µg/mL (≈ 124 µM); in test [5], 125 µg/mL (≈ 249 µM); in test [6] it was 62.5 µg/mL (≈ 124 µM).
As for `COc1ccc(/C=C\C(=O)c2ccc(NC(=O)CSc3nnc(-c4cccc([N+](=O)[O-])c4)o3)cc2)cc1`, the MIC in test [1] was 125 µg/mL (≈ 242 µM); in test [2], 125 µg/mL (≈ 242 µM); in test [3], 62.5 µg/mL (≈ 121 µM); in test [4], 62.5 µg/mL (≈ 121 µM); in test [5], 125 µg/mL (≈ 242 µM); in test [6], 62.5 µg/mL (≈ 121 µM).
Take `COc1ccc(OC)c(/C=C\C(=O)c2ccc(NC(=O)CSc3nnc(-c4cccc([N+](=O)[O-])c4)o3)cc2)c1`: the MIC stood at 125 µg/mL (≈ 229 µM) in test [1]; 125 µg/mL (≈ 229 µM) in test [2]; 62.5 µg/mL (≈ 114 µM) in test [3]; 62.5 µg/mL (≈ 114 µM) in test [4]; 125 µg/mL (≈ 229 µM) in test [5]; 62.5 µg/mL (≈ 114 µM) in test [6].
With `O=C(CSc1nnc(-c2cccc([N+](=O)[O-])c2)o1)Nc1ccc(C(=O)/C=C\c2c(O)ccc3ccccc23)cc1`, the MIC in test [1], in test [2], in test [3], in test [4], in test [5] and in test [6] was 62.5 µg/mL (≈ 113 µM) in each case.
As for `O=C(CSc1nnc(-c2cccc([N+](=O)[O-])c2)o1)Nc1ccc(C(=O)/C=C\c2ccc(Cl)cc2)cc1`, the MIC in test [1] turned out to be 62.5 µg/mL (≈ 120 µM); in test [2], 62.5 µg/mL (≈ 120 µM); in test [3] it was 31.2 µg/mL (≈ 60 µM); in test [4], 62.5 µg/mL (≈ 120 µM); in test [5] it was 62.5 µg/mL (≈ 120 µM); in test [6], 62.5 µg/mL (≈ 120 µM).
As to `O=C(CSc1nnc(-c2cccc([N+](=O)[O-])c2)o1)Nc1ccc(C(=O)/C=C\c2ccc(O)cc2)cc1`, the MIC amounted to 62.5 µg/mL (≈ 124 µM) in test [1]; 62.5 µg/mL (≈ 124 µM) in test [2]; 31.2 µg/mL (≈ 62.2 µM) in test [3]; 31.2 µg/mL (≈ 62.2 µM) in test [4]; 125 µg/mL (≈ 249 µM) in test [5]; 125 µg/mL (≈ 249 µM) in test [6].
In the case of `COc1cc(/C=C\C(=O)c2ccc(NC(=O)CSc3nnc(-c4cccc([N+](=O)[O-])c4)o3)cc2)ccc1O`, the MIC in test [1] amounted to 250 µg/mL (≈ 469 µM); in test [2], 250 µg/mL (≈ 469 µM); in test [3], 62.5 µg/mL (≈ 117 µM); in test [4], 31.2 µg/mL (≈ 58.7 µM); in test [5], 62.5 µg/mL (≈ 117 µM); in test [6] it was 62.5 µg/mL (≈ 117 µM).
In the case of `O=C(CSc1nnc(-c2cccc([N+](=O)[O-])c2)o1)Nc1ccc(C(=O)/C=C\c2ccc([N+](=O)[O-])cc2)cc1`, the MIC in test [1] amounted to 250 µg/mL (≈ 470 µM); in test [2] it was 250 µg/mL (≈ 470 µM); in test [3], 62.5 µg/mL (≈ 118 µM); in test [4] it was 31.2 µg/mL (≈ 58.8 µM); in test [5], 62.5 µg/mL (≈ 118 µM); in test [6], 62.5 µg/mL (≈ 118 µM).
`O=C(CSc1nnc(-c2cccc([N+](=O)[O-])c2)o1)Nc1ccc(C(=O)/C=C\c2ccc(Br)cc2)cc1`: the MIC in test [1] came out at 250 µg/mL (≈ 442 µM); in test [2] it was 250 µg/mL (≈ 442 µM); in test [3] it was 62.5 µg/mL (≈ 111 µM); in test [4], 62.5 µg/mL (≈ 111 µM); in test [5] it was 62.5 µg/mL (≈ 111 µM); in test [6] it was 62.5 µg/mL (≈ 111 µM).
On to `COc1ccc(/C=C\C(=O)c2ccc(NC(=O)CSc3nnc(-c4cccc([N+](=O)[O-])c4)o3)cc2)cc1OC`, for which the MIC in test [1] was found to be 500 µg/mL (≈ 915 µM); in test [2] it was 500 µg/mL (≈ 915 µM); in test [3] it was 62.5 µg/mL (≈ 114 µM); in test [4] it was 62.5 µg/mL (≈ 114 µM); in test [5], 31.2 µg/mL (≈ 57.2 µM); in test [6], 62.5 µg/mL (≈ 114 µM).
Consider `O=C(CSc1nnc(-c2cccc([N+](=O)[O-])c2)o1)Nc1ccc(C(=O)/C=C\c2ccccc2[N+](=O)[O-])cc1`, for which the MIC in test [1] came out at 250 µg/mL (≈ 470 µM); in test [2], 250 µg/mL (≈ 470 µM); in test [3] it was 62.5 µg/mL (≈ 118 µM); in test [4] it was 62.5 µg/mL (≈ 118 µM); in test [5], 125 µg/mL (≈ 235 µM); in test [6] it was 125 µg/mL (≈ 235 µM).
Consider `O=C(CSc1nnc(-c2cccc([N+](=O)[O-])c2)o1)Nc1ccc(C(=O)/C=C\c2ccccc2)cc1`, for which the MIC was 125 µg/mL (≈ 257 µM) in test [1]; 250 µg/mL (≈ 514 µM) in test [2]; 62.5 µg/mL (≈ 128 µM) in test [3]; 31.2 µg/mL (≈ 64.2 µM) in test [4]; 31.2 µg/mL (≈ 64.2 µM) in test [5]; 31.2 µg/mL (≈ 64.2 µM) in test [6].
With `COc1cc(/C=C\C(=O)c2ccc(NC(=O)CSc3nnc(-c4cccc([N+](=O)[O-])c4)o3)cc2)cc(OC)c1OC`, the MIC came out at 125 µg/mL (≈ 217 µM) in test [1]; 250 µg/mL (≈ 434 µM) in test [2]; 62.5 µg/mL (≈ 108 µM) in test [3]; 62.5 µg/mL (≈ 108 µM) in test [4]; 62.5 µg/mL (≈ 108 µM) in test [5]; 62.5 µg/mL (≈ 108 µM) in test [6].
Regarding `O=C(O)c1cn(C2CC2)c2cc(N3CCNCC3)c(F)cc2c1=O` [CIPROFLOXACIN], the MIC in test [3] was found to be 125 µg/mL (≈ 377 µM); in test [4], 125 µg/mL (≈ 377 µM); in test [5] it was 125 µg/mL (≈ 377 µM); in test [6] it was 62.5 µg/mL (≈ 189 µM).
`OC(Cn1cncn1)(Cn1cncn1)c1ccc(F)cc1F` [FLUCONAZOLE]: the MIC in test [1] worked out at 62.5 µg/mL (≈ 204 µM); in test [2], 125 µg/mL (≈ 408 µM).

The values above are taken from ChEMBL document CHEMBL2429864, “Synthesis and antimicrobial evaluation of 1,3,4-oxadiazole-based chalcone derivatives” (2013).
